{"source": "patent US20120270237A9", "about": "“METHODS FOR THE IDENTIFICATION OF KINASE INTERACTING MOLECULES AND FOR THE PURIFICATION OF KINASE PROTEINS” (Cellzone AG, priority 2009, published 2012)", "key": {"GSK3B": {"molecular_target": "GSK3B (Homo sapiens, UniProt P49841)", "sequence (P49841 whole entry)": "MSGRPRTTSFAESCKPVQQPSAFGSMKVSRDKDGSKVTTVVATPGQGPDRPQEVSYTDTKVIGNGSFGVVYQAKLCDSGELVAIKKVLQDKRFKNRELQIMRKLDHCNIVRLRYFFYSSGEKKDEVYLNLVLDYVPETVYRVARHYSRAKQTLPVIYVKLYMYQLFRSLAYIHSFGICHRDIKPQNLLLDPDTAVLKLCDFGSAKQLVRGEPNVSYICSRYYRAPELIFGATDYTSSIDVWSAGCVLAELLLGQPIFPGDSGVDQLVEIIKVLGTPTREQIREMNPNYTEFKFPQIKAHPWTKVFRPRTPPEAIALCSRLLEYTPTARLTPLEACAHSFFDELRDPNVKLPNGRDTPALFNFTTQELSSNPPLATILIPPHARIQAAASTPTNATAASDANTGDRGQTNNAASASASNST", "assay": "Kinobeads competition binding, HL60 cell lysate", "parameters": "endogenous in cells; host or cells: HL60", "conditions": "10 μM free compound", "description": "(§1) To one aliquot of cell lysate 10 μM of the free compound (FIG. 3, CZC31326) was added and allowed to bind to proteins in the lysate. Then the affinity matrix with the immobilized compound (Example 1) was added to capture proteins that were not interacting with the previously added free compound. Beads were separated from the lysate and bead bound proteins were eluted in SDS sample buffer and subsequently separated by SDS-Polyacrylamide gel electrophoresis (FIG. 4). Suitable gel bands were cut out and subjected to in-gel proteolytic digestion with trypsin. The second lysate aliquot was processed identically, however no free compound was added (DMSO solvent control). Peptides originating from samples 1 and 2 were labeled with iTRAQ reagents (iTRAQ 114 and iTRAQ 117) and the combined samples were analyzed with a nano-flow liquid chromatography system coupled online to a tandem mass spectrometer (LC-MS/MS) experiment followed by iTRAQ reporter ion quantification in the MS/MS spectra (Ross et al., 2004. Mol. Cell. Proteomics 3(12):1154-1169). Further experimental protocols can be found in WO2006/134056 and a previous publication (Bantscheff et al., 2007. Nature Biotechnology 25, 1035-1044). Sepharose-beads with the immobilized compound (100 μl beads per pull-down experiment) were equilibrated in lysis buffer and incubated with a cell lysate sample containing 50 mg of protein on an end-over-end shaker (Roto Shake Genie, Scientific Industries Inc.) for 2 hours at 4° C. Beads were collected, transferred to Mobicol-columns (MoBiTech 10055) and washed with 10 ml lysis buffer containing 0.4% NP40 detergent, followed by 5 ml lysis buffer containing 0.2% detergent. To elute bound proteins, 60 μl 2×SDS sample buffer was added to the column. The column was incubated for 30 minutes at 50° C. and the eluate was transferred to a siliconized microfuge tube by centrifugation. Proteins were then alkylated with 108 mM iodoacetamid. Proteins were then separated by SDS-Polyacrylamide electrophoresis (SDS-PAGE). The peptide extracts of samples treated with 10 μM of free compound (CZC31326) and the solvent control (0.5% DMSO) were treated with different variants of the isobaric tagging reagent (iTRAQ Reagents Multiplex Kit, part number 4352135, Applied Biosystems, Foster City, Calif., USA). The iTRAQ reagents are a set of multiplexed, amine-specific, stable isotope reagents that can label peptides on amino groups in up to four different biological samples enabling simultaneous identification and quantitation of peptides. The iTRAQ reagents were used according to instructions provided by the manufacturer. The samples were resuspended in 10 μl 50 mM TEAB solution, pH 8.5 and 10 μl ethanol were added. The iTRAQ reagent was dissolved in 120 μl ethanol and 10 μl of reagent solution were added to the sample. The labeling reaction was performed at room temperature for one hour on a horizontal shaker and stopped by adding 5 μl of 100 mM TEAB and 100 mM glycine in water. The two labeled sampled were then combined, dried in a vacuum centrifuge and resuspended in 10 μl of 0.1% formic acid in water. Relative protein quantitation was performed using peak areas of iTRAQ reporter ion signals essentially as described in an earlier publication (Bantscheff et al., 2007. Nature Biotechnology 25, 1035-1044)."}, "GSK3A": {"molecular_target": "GSK3A (Homo sapiens, UniProt P49840)", "sequence (P49840 whole entry)": "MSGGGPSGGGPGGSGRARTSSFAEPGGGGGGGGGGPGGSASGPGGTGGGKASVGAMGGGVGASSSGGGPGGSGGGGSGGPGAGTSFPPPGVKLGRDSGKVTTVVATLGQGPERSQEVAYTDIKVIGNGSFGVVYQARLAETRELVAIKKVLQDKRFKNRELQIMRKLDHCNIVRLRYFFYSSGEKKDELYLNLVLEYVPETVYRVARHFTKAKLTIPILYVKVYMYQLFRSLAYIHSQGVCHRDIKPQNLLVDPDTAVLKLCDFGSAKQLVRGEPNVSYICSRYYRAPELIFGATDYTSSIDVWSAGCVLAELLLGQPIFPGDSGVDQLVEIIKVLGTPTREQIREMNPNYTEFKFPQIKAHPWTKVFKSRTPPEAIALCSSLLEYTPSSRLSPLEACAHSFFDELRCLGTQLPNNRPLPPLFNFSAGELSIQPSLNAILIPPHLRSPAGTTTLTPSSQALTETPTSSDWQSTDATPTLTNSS", "assay": "Kinobeads competition binding, HL60 cell lysate", "parameters": "endogenous in cells; host or cells: HL60", "conditions": "10 μM free compound", "description": "as §1"}, "PLK4": {"molecular_target": "PLK4 (Homo sapiens, UniProt O00444)", "sequence (O00444 whole entry)": "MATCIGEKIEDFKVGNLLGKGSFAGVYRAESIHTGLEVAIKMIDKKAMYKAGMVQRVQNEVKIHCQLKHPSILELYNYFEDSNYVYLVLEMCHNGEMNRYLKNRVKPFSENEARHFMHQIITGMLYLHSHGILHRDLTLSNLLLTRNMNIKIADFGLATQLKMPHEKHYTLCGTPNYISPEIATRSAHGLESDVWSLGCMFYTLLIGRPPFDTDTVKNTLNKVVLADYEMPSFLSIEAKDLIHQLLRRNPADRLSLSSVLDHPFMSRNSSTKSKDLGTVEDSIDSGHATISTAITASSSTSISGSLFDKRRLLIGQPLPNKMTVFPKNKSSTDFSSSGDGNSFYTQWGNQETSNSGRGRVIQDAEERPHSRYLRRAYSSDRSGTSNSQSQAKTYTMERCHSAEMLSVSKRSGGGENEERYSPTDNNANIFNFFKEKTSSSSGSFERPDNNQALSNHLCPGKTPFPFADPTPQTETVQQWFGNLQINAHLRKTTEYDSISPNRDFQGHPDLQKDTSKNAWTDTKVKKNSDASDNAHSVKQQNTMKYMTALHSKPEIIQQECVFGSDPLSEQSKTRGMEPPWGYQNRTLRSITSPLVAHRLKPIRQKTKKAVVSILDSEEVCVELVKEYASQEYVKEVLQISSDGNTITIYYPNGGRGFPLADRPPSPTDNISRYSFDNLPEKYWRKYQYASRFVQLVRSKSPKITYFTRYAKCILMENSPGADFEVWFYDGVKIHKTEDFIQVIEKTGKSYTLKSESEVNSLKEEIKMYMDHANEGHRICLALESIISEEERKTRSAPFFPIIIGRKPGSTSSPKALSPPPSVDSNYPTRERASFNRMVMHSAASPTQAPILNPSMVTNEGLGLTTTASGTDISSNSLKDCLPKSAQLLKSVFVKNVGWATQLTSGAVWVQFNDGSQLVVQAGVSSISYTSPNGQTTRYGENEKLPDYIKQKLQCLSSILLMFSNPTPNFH", "assay": "Kinobeads competition binding, L-363 cell lysate", "parameters": "endogenous in cells; host or cells: L-363 cells (treated with MG132 before harvest)", "conditions": "10 μM free compound, L-363 lysate", "description": "(§2) To one aliquot of cell lysate 10 μM of the free compound (FIG. 3, CZC31326) was added and allowed to bind to proteins in the lysate. Then the affinity matrix with the immobilized compound was added to capture proteins that were not interacting with the previously added free compound. Beads were separated from the lysate and bead bound proteins were eluted in SDS sample buffer and subsequently separated by SDS-Polyacrylamide gel electrophoresis (FIG. 8). Suitable gel bands were cut out and subjected to in-gel proteolytic digestion with trypsin. The second lysate aliquot was processed identically, however no free compound was added (DMSO solvent control). Peptides originating from samples 1 and 2 were labeled with iTRAQ reagents (iTRAQ 114 and iTRAQ 117) and the combined samples were analyzed with a nano-flow liquid chromatography system coupled online to a tandem mass spectrometer (LC-MS/MS) experiment followed by iTRAQ reporter ion quantification in the MS/MS spectra as described in Example 2.\n(§3) For this experiment the human plasma cell leukaemia line L-363 was used (German Collection of Microorganisms and Cell Cultures, DSMZ number ACC49, Braunschweig, Germany). Cells were treated for three hours with 20 μM of the proteasome inhibitor MG132 (Z-Leu-Leu-Leu-al, Sigma C2211) prior to cell harvesting."}, "STK33": {"molecular_target": "STK33 (Homo sapiens, UniProt Q9BYT3)", "sequence (Q9BYT3 whole entry)": "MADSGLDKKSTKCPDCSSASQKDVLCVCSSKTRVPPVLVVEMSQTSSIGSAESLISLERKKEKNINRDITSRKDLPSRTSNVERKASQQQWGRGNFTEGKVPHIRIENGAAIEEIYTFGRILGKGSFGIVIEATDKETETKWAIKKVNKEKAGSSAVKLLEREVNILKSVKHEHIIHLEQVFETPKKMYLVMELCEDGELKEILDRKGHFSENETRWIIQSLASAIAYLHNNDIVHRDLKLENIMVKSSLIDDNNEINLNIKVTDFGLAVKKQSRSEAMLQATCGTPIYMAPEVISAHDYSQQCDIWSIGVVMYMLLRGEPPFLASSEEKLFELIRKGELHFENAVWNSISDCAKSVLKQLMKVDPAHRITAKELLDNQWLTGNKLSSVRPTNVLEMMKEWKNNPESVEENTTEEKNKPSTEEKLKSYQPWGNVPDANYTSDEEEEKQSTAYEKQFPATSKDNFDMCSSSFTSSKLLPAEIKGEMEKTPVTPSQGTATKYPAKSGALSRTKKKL", "assay": "Kinobeads competition binding, L-363 cell lysate", "parameters": "endogenous in cells; host or cells: L-363 cells (treated with MG132 before harvest)", "conditions": "10 μM free compound, L-363 lysate", "description": "as §2, §3"}, "LCK": {"molecular_target": "T1, LCK (Homo sapiens, UniProt P06239)", "T1 construct": "Identified kinases with CZC31326 from HL60 lysate; endogenous in cells; host or cells: HL60", "T1 sequence (P06239 whole entry)": "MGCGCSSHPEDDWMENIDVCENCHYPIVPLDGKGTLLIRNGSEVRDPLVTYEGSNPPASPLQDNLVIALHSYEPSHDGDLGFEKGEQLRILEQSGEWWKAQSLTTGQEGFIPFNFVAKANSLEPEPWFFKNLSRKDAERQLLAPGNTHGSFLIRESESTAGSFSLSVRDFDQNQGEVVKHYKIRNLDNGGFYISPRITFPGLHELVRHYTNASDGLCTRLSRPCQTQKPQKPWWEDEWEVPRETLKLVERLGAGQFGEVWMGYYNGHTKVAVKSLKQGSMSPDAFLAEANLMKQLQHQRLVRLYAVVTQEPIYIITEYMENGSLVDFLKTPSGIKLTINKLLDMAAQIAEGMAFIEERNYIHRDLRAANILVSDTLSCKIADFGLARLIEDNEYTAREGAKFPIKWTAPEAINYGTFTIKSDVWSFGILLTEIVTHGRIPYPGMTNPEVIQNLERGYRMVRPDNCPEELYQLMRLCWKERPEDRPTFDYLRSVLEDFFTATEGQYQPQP", "assay": "Kinobeads competition binding, HL60 cell lysate", "conditions": "10 μM free compound", "description": "as §1"}, "MAP2K5": {"molecular_target": "T2, MAP2K5 (Homo sapiens, UniProt Q13163)", "T2 sequence (Q13163 1-448)": "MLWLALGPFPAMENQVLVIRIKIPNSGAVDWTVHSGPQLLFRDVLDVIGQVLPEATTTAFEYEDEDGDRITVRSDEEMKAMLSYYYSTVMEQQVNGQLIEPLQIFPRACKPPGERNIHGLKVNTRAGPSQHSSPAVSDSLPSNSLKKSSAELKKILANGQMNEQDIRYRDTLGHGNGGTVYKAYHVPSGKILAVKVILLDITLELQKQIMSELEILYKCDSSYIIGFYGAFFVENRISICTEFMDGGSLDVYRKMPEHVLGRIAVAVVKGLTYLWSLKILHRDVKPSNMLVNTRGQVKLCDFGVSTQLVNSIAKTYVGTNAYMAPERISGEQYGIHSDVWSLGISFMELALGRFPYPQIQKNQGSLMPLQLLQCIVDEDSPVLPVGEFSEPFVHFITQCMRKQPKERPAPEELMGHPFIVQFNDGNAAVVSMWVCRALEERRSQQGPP", "assay": "Kinobeads competition binding, HL60 cell lysate", "conditions": "10 μM free compound", "description": "as §1"}, "EphB6": {"molecular_target": "T3, EphB6 (Homo sapiens, UniProt O15197)", "T3 construct": "endogenous in cells; host or cells: HL60 (DSMZ ACC3)", "T3 sequence (O15197 32-1021)": "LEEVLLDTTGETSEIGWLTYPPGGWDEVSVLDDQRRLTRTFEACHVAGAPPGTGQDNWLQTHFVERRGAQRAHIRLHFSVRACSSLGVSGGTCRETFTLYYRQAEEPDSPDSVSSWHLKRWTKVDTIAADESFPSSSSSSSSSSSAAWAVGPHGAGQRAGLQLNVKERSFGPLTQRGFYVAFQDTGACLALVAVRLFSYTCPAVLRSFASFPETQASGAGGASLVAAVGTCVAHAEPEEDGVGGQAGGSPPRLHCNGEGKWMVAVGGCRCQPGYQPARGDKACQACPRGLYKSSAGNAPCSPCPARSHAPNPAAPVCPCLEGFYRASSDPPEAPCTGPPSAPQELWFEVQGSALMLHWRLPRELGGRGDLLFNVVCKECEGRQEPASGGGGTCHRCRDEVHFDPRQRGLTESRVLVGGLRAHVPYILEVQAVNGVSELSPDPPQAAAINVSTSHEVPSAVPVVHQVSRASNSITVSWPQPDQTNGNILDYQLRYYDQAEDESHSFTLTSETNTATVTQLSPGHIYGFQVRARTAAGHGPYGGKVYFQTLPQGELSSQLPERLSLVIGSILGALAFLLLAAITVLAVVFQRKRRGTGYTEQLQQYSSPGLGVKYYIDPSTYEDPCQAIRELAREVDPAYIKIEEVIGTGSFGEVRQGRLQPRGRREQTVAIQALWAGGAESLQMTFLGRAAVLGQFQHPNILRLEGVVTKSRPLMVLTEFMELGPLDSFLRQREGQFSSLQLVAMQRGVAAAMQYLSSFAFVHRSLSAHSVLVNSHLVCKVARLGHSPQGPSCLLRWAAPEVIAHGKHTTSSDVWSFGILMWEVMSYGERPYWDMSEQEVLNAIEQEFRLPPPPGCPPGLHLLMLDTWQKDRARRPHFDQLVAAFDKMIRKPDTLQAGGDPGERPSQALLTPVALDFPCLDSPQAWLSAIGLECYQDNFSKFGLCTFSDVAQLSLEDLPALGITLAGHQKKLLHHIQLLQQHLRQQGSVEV", "assay": "Kinobeads competition binding, HL60 cell lysate", "conditions": "10 μM free compound", "description": "as §1"}}, "data": [{"smiles": "CS(=O)(=O)Nc1ccccc1Nc1nc(Nc2cccc(OCCN)c2)ncc1Cl", "note": "[CZC31326, N-(2-(2-(3-(2-aminoethoxy)phenylamino)-5-chloropyrimidin-4-ylamino)phenyl)methanesulfonamide]", "values": [{"measurement": "inhibition at 10 µM", "setting": "GSK3B", "result": 96.1, "unit": "%"}, {"measurement": "inhibition at 10 µM", "setting": "GSK3A", "result": 96.2, "unit": "%"}, {"measurement": "inhibition at 10 µM", "setting": "PLK4", "result": 91.2, "unit": "%"}, {"measurement": "inhibition at 10 µM", "setting": "STK33", "result": 95.7, "unit": "%"}, {"measurement": "inhibition at 10 µM", "setting": "LCK", "result": 86.8, "unit": "%"}, {"measurement": "inhibition at 10 µM", "setting": "MAP2K5", "result": 93.1, "unit": "%"}, {"measurement": "inhibition at 10 µM", "setting": "EphB6", "result": 93.6, "unit": "%"}]}]}
